Assay results from ChEMBL document CHEMBL1268898, “Metallocene catalyzed synthesis of fungistatic vicinal aminoalcohols under solvent free conditions” (2010).

tested on: Botrytis cinerea; test: Fungistatic activity against Botrytis cinerea assessed as inhibition of fungal growth at 100 mg/L relative to control; format: functional; conditions: read-out: GI

| SMILES | inhibition of growth at 100 µg/mL [%] |
| --- | --- |
| O=[N+]([O-])c1ccc(NC(CO)c2ccccc2)cc1 (stereo unspecified) | 69 |
| CN(C)S(=O)(=O)N(SC(F)(Cl)Cl)c1ccccc1 [DICHLOFLUANID] | > 95 |
| Cc1ccc(NCC(C)(C)O)cc1 | 62 |
| Cc1ccc(N(CC(O)COc2ccccc2)CC(O)COc2ccccc2)cc1 (stereo unspecified) | 53 |
| Cc1ccc(NCC(O)COc2ccccc2)cc1 (stereo unspecified) | 87 |
| Cc1ccc(NC(CO)c2ccccc2)cc1 (stereo unspecified) | 63 |

tested on: Colletotrichum gloeosporioides; test: Fungistatic activity against Colletotrichum gloeosporioides assessed as inhibition of fungal growth at 100 mg/L relative to control; format: functional; conditions: read-out: GI

| SMILES | inhibition of growth at 100 µg/mL [%] |
| --- | --- |
| O=[N+]([O-])c1ccc(NC(CO)c2ccccc2)cc1 (stereo unspecified) | 55 |
| Cc1ccc(NCC(C)(C)O)cc1 | < 30 |
| Cc1ccc(N(CC(O)COc2ccccc2)CC(O)COc2ccccc2)cc1 (stereo unspecified) | < 30 |
| Cc1ccc(NCC(O)COc2ccccc2)cc1 (stereo unspecified) | 72 |
| Cc1ccc(NC(CO)c2ccccc2)cc1 (stereo unspecified) | 40 |
